Measurements reported in US20140005163A1 (NOVARTIS AG, priority 2010, published 2014).

Legend:
[1] = system: S6 Ribosomal Protein phosphorylation Ser235/236 in TSC1 null mouse embryo fibroblast (MEF) cells; assay: Reverse protein array assay, S6 Ribosomal Protein phosphorylation Ser235/236 in TSC1 null MEF cells; type: cell-based; settings: 1 h, pS6 ribosomal protein Ser235/236, 60 minutes incubation, read-out: p-S6 IC50
Summary of the method: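 TSC1−/− MEFs, seeded and held ≥20 h at 37 °C/5% CO2, were exposed to 8-step serial compound dilutions (0.02% DMSO final; DMSO vehicle control) for 60 min at 37 °C. Cells were then lysed on ice for 10 min and lysates spotted onto reverse protein array chips.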

[2] = system: PKB Ser473 phosphorylation in Rat1-myr-HA-p110 delta cells; assay: Reverse protein array assay, PKB Ser473 phosphorylation in Rat1-myr-p110 delta cells; type: cell-based; settings: read-out: p-PKB IC50
Summary of the method: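 Cells: Rat1-myr-HA-p110 alpha/beta/delta, seeded ≥20 h. Lysis on ice 10 min; reverse-phase protein array, 4 lysate dilutions; fluorescence read, relative intensity.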

mTOR = target: T1, mTOR (Homo sapiens, UniProt P42345); assay: Biochemical assay for m-TOR by TR-FRET; settings: 8 μM ATP, 400 nM GFP-4EBP1, 0.5 nM mTOR
T1 construct: purchased Invitrogen Corporation (Carlsbad/CA, USA) PV4753
T1 sequence (P42345 1360-2549 limits assumed): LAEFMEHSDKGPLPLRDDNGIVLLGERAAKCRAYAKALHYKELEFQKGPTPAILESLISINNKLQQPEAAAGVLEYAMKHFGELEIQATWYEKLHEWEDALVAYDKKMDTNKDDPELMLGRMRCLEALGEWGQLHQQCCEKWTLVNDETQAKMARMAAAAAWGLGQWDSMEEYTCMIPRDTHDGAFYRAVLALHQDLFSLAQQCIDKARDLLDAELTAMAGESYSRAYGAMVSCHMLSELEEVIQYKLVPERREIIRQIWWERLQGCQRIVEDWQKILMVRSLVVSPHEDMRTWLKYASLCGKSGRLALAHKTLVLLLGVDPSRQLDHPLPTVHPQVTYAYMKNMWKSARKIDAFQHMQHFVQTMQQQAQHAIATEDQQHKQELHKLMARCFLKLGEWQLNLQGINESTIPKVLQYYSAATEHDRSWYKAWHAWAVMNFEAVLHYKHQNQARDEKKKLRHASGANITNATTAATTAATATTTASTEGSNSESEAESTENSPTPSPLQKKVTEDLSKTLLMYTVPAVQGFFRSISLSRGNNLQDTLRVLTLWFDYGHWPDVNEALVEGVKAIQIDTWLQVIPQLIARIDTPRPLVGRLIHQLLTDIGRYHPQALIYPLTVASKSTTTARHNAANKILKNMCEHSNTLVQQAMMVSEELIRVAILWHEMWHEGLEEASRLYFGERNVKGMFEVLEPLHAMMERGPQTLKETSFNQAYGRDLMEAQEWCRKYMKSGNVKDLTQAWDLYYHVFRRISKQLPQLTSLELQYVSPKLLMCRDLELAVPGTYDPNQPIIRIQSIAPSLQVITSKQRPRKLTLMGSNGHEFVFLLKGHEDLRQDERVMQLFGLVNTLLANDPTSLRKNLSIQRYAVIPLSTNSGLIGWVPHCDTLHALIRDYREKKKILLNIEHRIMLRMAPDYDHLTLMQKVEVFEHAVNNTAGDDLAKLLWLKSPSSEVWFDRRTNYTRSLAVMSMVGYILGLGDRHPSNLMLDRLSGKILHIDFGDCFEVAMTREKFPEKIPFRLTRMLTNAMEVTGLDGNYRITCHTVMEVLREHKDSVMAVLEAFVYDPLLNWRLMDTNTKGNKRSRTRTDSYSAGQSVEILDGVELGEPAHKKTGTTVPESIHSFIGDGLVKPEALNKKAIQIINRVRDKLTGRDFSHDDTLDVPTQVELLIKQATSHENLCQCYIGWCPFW
Summary of the method: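 mTOR (0.5 nM final) phosphorylated GFP-4EBP1 (400 nM final) with ATP (8 μM final) at rt in 50 mM HEPES pH 7.5, 10 mM MnCl2, 50 mM NaCl, 1 mM EGTA, 1 mM DTT. EDTA stop with Tb3+-anti-p4EBP1 [pThr46] antibody (0.5 nM); TR-FRET read 15 min later.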

IC50 [2] [nM] | IC50 (mTOR) [nM] | SMILES | IC50 [1] [nM]
335 | 193 | CCOCc1ncc(-c2ccc3ncc4c(c3c2)n(-c2cn(C)nc2C)c(=O)n4C)cc1OC [Example 196.2, 1-(1,3-Dimethyl-1H-pyrazol-4-yl)-8-(6-ethoxymethyl-5-methoxy-pyridin-3-yl)-3-methyl-1,3-dihydro-imidazo[4,5-c]quinolin-2-one] | 125
336 | 107 | CCOc1cc(-c2ccc3ncc4c(c3c2)n(-c2cn(C(C)C)nc2C)c(=O)n4C)cnc1COC [Example 197.2, 8-(5-Ethoxy-6-methoxymethyl-pyridin-3-yl)-1-(1-isopropyl-3-methyl-1H-pyrazol-4-yl)-3-methyl-1,3-dihydro-imidazo[4,5-c]quinolin-2-one] | 7
26 | 15 | COCc1ccc(-c2ccc3ncc4c(c3c2)n(-c2cn(C)nc2Cl)c(=O)n4C)cn1 [Example 203, 1-(3-Chloro-1-methyl-1H-pyrazol-4-yl)-8-(6-methoxymethyl-pyridin-3-yl)-3-methyl-1,3-dihydro-imidazo[4,5-c]quinolin-2-one] | 22
45 | 34 | CCNc1ncc(-c2ccc3ncc4c(c3c2)n(-c2cn(C)nc2C)c(=O)n4C)cc1COC [Example 206.1, 1-(1,3-Dimethyl-1H-pyrazol-4-yl)-8-(6-ethylamino-5-methoxymethyl-pyridin-3-yl)-3-methyl-1,3-dihydro-imidazo[4,5-c]quinolin-2-one] | 3
83 | 7 | CCc1ncc(-c2ccc3ncc4c(c3c2)n(-c2cn(C)nc2C)c(=O)n4C)cc1N [Example 208, 8-(5-Amino-6-ethyl-pyridin-3-yl)-1-(1,3-dimethyl-1H-pyrazol-4-yl)-3-methyl-1,3-dihydro-imidazo[4,5-c]quinolin-2-one] | 5
631 | 373 | CO[C@@H]1CCN(c2ccc(-c3ccc4ncc5c(c4c3)n(-c3cn(C)nc3C)c(=O)n5C)cn2)C1 [Example 213.1, 1-(1,3-Dimethyl-1H-pyrazol-4-yl)-8-[6-((R)-3-methoxy-pyrrolidin-1-yl)-pyridin-3-yl]-3-methyl-1,3-dihydro-imidazo[4,5-c]quinolin-2-one] | 49.4
13 | 5 | Cn1cc(-n2c(=O)n(C)c3cnc4ccc(-c5cncc(C(C)(C)C#N)c5)cc4c32)c(Cl)n1 [Example 220.3, 2-{5-[1-(3-Chloro-1-methyl-1H-pyrazol-4-yl)-3-methyl-2-oxo-2,3-dihydro-1H-imidazo[4,5-c]quinolin-8-yl]-pyridin-3-yl}-2-methyl-propionitrile] | < 0.5
41 | 32 | Cc1nn(C)cc1-n1c(=O)n(C)c2cnc3ccc(-c4cncc(C5(C#N)CCC5)c4)cc3c21 [Example 221.1, 1-{5-[1-(1,3-Dimethyl-1H-pyrazol-4-yl)-3-methyl-2-oxo-2,3-dihydro-1H-imidazo[4,5-c]quinolin-8-yl]-pyridin-3-yl}-cyclobutanecarbonitrile] | 1
49 | 70 | CCN1C(=O)OCc2ncc(-c3ccc4ncc5c(c4c3)n(-c3cn(C)nc3C)c(=O)n5C)cc21 [Example 237, 1-(1,3-Dimethyl-1H-pyrazol-4-yl)-8-(1-ethyl-2-oxo-1,4-dihydro-2H-pyrido[3,2-d][1,3]oxazin-7-yl)-3-methyl-1,3-dihydro-imidazo[4,5-c]quinolin-2-one] | 6
719 | 76 | CCn1c(=O)n(-c2cn(C)nc2C)c2c3cc(-c4cncc(N)c4)ccc3ncc21 [Example 245, 8-(5-Amino-pyridin-3-yl)-1-(1,3-dimethyl-1H-pyrazol-4-yl)-3-ethyl-1,3-dihydro-imidazo[4,5-c]quinolin-2-one] | 43
288 | 12 | Cc1nn(CC(=O)N2CCC2)cc1-n1c(=O)n(C)c2cnc3ccc(-c4cnc(N5CCCC5)nc4)cc3c21 [Example 247.2, 1-[1-(2-Azetidin-1-yl-2-oxo-ethyl)-3-methyl-1H-pyrazol-4-yl]-3-methyl-8-(2-pyrrolidin-1-yl-pyrimidin-5-yl)-1,3-dihydro-imidazo[4,5-c]quinolin-2-one] | 9
